Key:
Type in all cases: cell-based
SK-MEL-2 = assay: NCI 60 cell line screen (SRB), Melanoma; settings: SK-MEL-2 (Melanoma)
HCT-116 = assay: NCI 60 cell line screen (SRB), Colon Cancer; settings: HCT-116 (Colon Cancer)
SNB-75 = assay: NCI 60 cell line screen (SRB), CNS Cancer; settings: SNB-75 (CNS Cancer)
SK-OV-3 = assay: NCI 60 cell line screen (SRB), Ovarian Cancer; settings: SK-OV-3 (Ovarian Cancer)
CAKI-1 = assay: NCI 60 cell line screen (SRB), Renal Cancer; settings: CAKI-1 (Renal Cancer)
MOLT-4 = assay: NCI 60 cell line screen (SRB), Leukemia; settings: MOLT-4 (Leukemia)
UO-31 = assay: NCI 60 cell line screen (SRB), Renal Cancer; settings: UO-31 (Renal Cancer)
SR = assay: NCI 60 cell line screen (SRB), Leukemia
MDA-MB-435 = assay: NCI 60 cell line screen (SRB), Breast Cancer; settings: MDA-MB-435 (Breast Cancer)
LOX IMVI = assay: NCI 60 cell line screen (SRB), Melanoma
KM12 = assay: NCI 60 cell line screen (SRB), Colon Cancer
OVCAR-4 = assay: NCI 60 cell line screen (SRB), Ovarian Cancer; settings: OVCAR-4 (Ovarian Cancer)
HS 578T = assay: NCI 60 cell line screen (SRB), Breast Cancer; settings: HS 578T (Breast Cancer)
IGROVI = assay: NCI 60 cell line screen (SRB), Ovarian Cancer
SF-268 = assay: NCI 60 cell line screen (SRB), CNS Cancer; settings: SF-268 (CNS Cancer)
SK-MEL-5 = assay: NCI 60 cell line screen (SRB), Melanoma; settings: SK-MEL-5 (Melanoma)
MDA-MB231/ATCC = assay: NCI 60 cell line screen (SRB), Breast Cancer
EKVX = assay: NCI 60 cell line screen (SRB), Non-Small Cell Lung Cancer
BT-549 = assay: NCI 60 cell line screen (SRB), Breast Cancer; settings: BT-549 (Breast Cancer)
UACC-257 = assay: NCI 60 cell line screen (SRB), Melanoma; settings: UACC-257 (Melanoma)
NCI-H322M = assay: NCI 60 cell line screen (SRB), Non-Small Cell Lung Cancer
HOP-92 = assay: as above; settings: HOP-92 (Non-Small Cell Lung Cancer)
786-0 = assay: NCI 60 cell line screen (SRB), Renal Cancer; settings: 786-0 (Renal Cancer)
SNB-19 = assay: NCI 60 cell line screen (SRB), CNS Cancer; settings: SNB-19 (CNS Cancer)
60 cell line panel = assay: NCI 60 cell line screen, values over the whole panel; settings: mean value over the cell line panel
UACC-62 = assay: NCI 60 cell line screen (SRB), Melanoma; settings: UACC-62 (Melanoma)
M14 = assay: NCI 60 cell line screen (SRB), Melanoma
K-562 = assay: NCI 60 cell line screen (SRB), Leukemia; settings: K-562 (Leukemia)
HL-60(TB) = assay: NCI 60 cell line screen (SRB), Leukemia; settings: HL-60(TB) (Leukemia)
SN12C = assay: NCI 60 cell line screen (SRB), Renal Cancer
RPMI-8226 = assay: NCI 60 cell line screen (SRB), Leukemia; settings: RPMI-8226 (Leukemia)
MALME-3M = assay: NCI 60 cell line screen (SRB), Melanoma; settings: MALME-3M (Melanoma)

COC1OC2(C)CCC3CCCC(CCOC(=O)c4ccc(C(=O)OCCC5CCCC6CCC7(C)OOC56C(OC)O7)cc4)C31OO2 (stereo not drawn) [Compound 11, Bis-ester Dimer] was tested, and the Log10GI50 (SK-MEL-2) was −5.47 M, the Log10LC50 (SK-MEL-2) was greater than −4.00 M and the Log10TGI (SK-MEL-2) was −5.04 M. It also gave a Log10GI50 (HCT-116) of −6.30 M, a Log10LC50 (HCT-116) greater than −4.00 M and a Log10TGI (HCT-116) greater than −4.00 M. The Log10GI50 (SNB-75) was −5.66 M, the Log10LC50 (SNB-75) was greater than −4.00 M and the Log10GI50 (SK-OV-3) was −5.28 M. The Log10LC50 (SK-OV-3) was greater than −4.00 M, the Log10TGI (SK-OV-3) was greater than −4.00 M and the Log10GI50 (CAKI-1) was −4.99 M. The Log10LC50 (CAKI-1) was greater than −4.00 M, the Log10TGI (CAKI-1) was greater than −4.00 M and the Log10GI50 (MOLT-4) was −6.67 M. It also gave a Log10LC50 (MOLT-4) greater than −4.00 M, a Log10TGI (MOLT-4; listed as Terephtalate Dimer) of −4.70 M and a Log10TGI (MOLT-4; listed as terephthalate dimer) of 6.20 M. For the same molecule, the Log10GI50 (UO-31) was −5.63 M, the Log10LC50 (UO-31) was greater than −4.00 M and the Log10TGI (UO-31) was greater than −4.00 M. The Log10GI50 (SR) was −6.38 M, the Log10LC50 (SR) was greater than −4.00 M and the Log10TGI (SR) was −5.17 M. The Log10GI50 (MDA-MB-435) was −5.69 M, the Log10LC50 (MDA-MB-435) was greater than −4.00 M and the Log10TGI (MDA-MB-435) was −4.63 M. For the same molecule, the Log10GI50 (LOX IMVI) was −6.28 M, the Log10LC50 (LOX IMVI) was greater than −4.00 M and the Log10TGI (LOX IMVI) was greater than −4.00 M. It also gave a Log10GI50 (KM12) of −6.24 M, a Log10LC50 (KM12) greater than −4.00 M and a Log10TGI (KM12) greater than −4.00 M. It also gave a Log10GI50 (OVCAR-4) of −5.26 M, a Log10LC50 (OVCAR-4) greater than −4.00 M and a Log10TGI (OVCAR-4) greater than −4.00 M. The Log10GI50 (HS 578T) was −4.55 M, the Log10LC50 (HS 578T) was greater than −4.00 M and the Log10TGI (HS 578T) was greater than −4.00 M. It also gave a Log10GI50 (IGROVI) of −4.95 M, a Log10LC50 (IGROVI) greater than −4.00 M and a Log10TGI (IGROVI) greater than −4.00 M. It also gave a Log10GI50 (SF-268) of −5.14 M, a Log10LC50 (SF-268) greater than −4.00 M and a Log10TGI (SF-268) greater than −4.00 M. The Log10GI50 (SK-MEL-5) was −6.00 M, the Log10LC50 (SK-MEL-5) was greater than −4.00 M and the Log10TGI (SK-MEL-5) was greater than −4.00 M. It also gave a Log10GI50 (MDA-MB231/ATCC) of −5.18 M, a Log10LC50 (MDA-MB231/ATCC) greater than −4.00 M and a Log10TGI (MDA-MB231/ATCC) greater than −4.00 M. For the same molecule, the Log10GI50 (EKVX) was −5.20 M, the Log10LC50 (EKVX) was greater than −4.00 M and the Log10TGI (EKVX) was greater than −4.00 M. For the same molecule, the Log10GI50 (BT-549) was −5.44 M, the Log10LC50 (BT-549) was greater than −4.00 M and the Log10TGI (BT-549) was greater than −4.00 M. It also gave a Log10GI50 (UACC-257) of −5.36 M, a Log10LC50 (UACC-257) greater than −4.00 M and a Log10TGI (UACC-257) greater than −4.00 M. For the same molecule, the Log10GI50 (NCI-H322M) was −4.69 M, the Log10LC50 (NCI-H322M) was greater than −4.00 M and the Log10TGI (NCI-H322M) was greater than −4.00 M. It also gave a Log10GI50 (HOP-92) of −4.91 M, a Log10LC50 (HOP-92) greater than −4.00 M and a Log10TGI (HOP-92) greater than −4.00 M. The Log10GI50 (786-0) was −5.41 M, the Log10LC50 (786-0) was greater than −4.00 M and the Log10TGI (786-0) was greater than −4.00 M. It also gave a Log10GI50 (SNB-19) of −5.31 M, a Log10LC50 (SNB-19) greater than −4.00 M and a Log10TGI (SNB-19) greater than −4.00 M. For the same molecule, the “Log10GI50 MG MID” value (60 cell line panel) was −5.59 M, the “Log10LC50 MG MID” value (60 cell line panel) was −4.04 M and the “Log10TGI MG MID” value (60 cell line panel) was −4.19 M. The Log10GI50 (UACC-62) was −5.87 M, the Log10LC50 (UACC-62) was greater than −4.00 M and the Log10TGI (UACC-62) was greater than −4.00 M. For the same molecule, the Log10GI50 (M14) was −5.20 M, the Log10LC50 (M14) was greater than −4.00 M and the Log10TGI (M14) was greater than −4.00 M. The Log10GI50 (K-562) was −6.57 M, the Log10LC50 (K-562) was greater than −4.00 M and the Log10TGI (K-562) was greater than −4.00 M. It also gave a Log10GI50 (HL-60(TB)) of −7.42 M, a Log10LC50 (HL-60(TB)) of −5.26 M and a Log10TGI (HL-60(TB)) of −6.58 M. For the same molecule, the Log10GI50 (SN12C) was −5.46 M, the Log10LC50 (SN12C) was greater than −4.00 M and the Log10TGI (SN12C) was greater than −4.00 M. The Log10GI50 (RPMI-8226) was −6.33 M, the Log10LC50 (RPMI-8226) was greater than −4.00 M and the Log10TGI (RPMI-8226) was −5.10 M. For the same molecule, the Log10GI50 (MALME-3M) was −5.03 M, the Log10LC50 (MALME-3M) was greater than −4.00 M and the Log10TGI (MALME-3M) was greater than −4.00 M.

From USRE38117E1, “Trioxane dimer compound having antiproliferative and antitumor activities” (Hauser, Inc., priority 1995, dated 2003)
